Laboratory results reported in patent publication US11773086B2, “Fungal modulators” (TRUSTEES OF BOSTON UNIVERSITY, priority 2020, dated 2023).

tested on: FLC-resistant Candida auris; test: Checkerboard (dose-response matrix) with fluconazole, FICI; type: cell-based; conditions: fractional inhibitory concentration index for enhancement of FLC activity in FLC-resistant Candida auris; <0.5 strong synergy, 2 = no synergy
Experimental: Generally, the synergy is measured by determining the fractional inhibitory concentration (FIC) value of the combination. […] FIC values for both agents in a particular square/well are calculated in this way followed by determination of the FIC index (sum of the FICs of each agent in the particular square/well).
Compound potency was assessed alone by dose response assays or in combination with another compound by dose-response matrixes in 96-well plates, or 384-well, flat-bottom, microtiter plates (Corning) as previously described. Plates were incubated at 30° C. for the indicated time period. Growth was quantified by measuring OD600 and corrected for medium background. All strains were assessed in biological duplicate experiments with technical duplicates. Growth was normalized to untreated controls and plotted as a heat map using Java TreeView 1.1.6r4. For dose-response matrixes fractional inhibitory concentration index at 90% growth inhibition (FICI90) was calculated as previously described. The fluconazole Etest susceptibility assay was performed as previously described. Briefly, 200 μL of 5×10^6 cells/mL were plated on YPD agar (1%) plates with either with 50 μM azoffluxin or containing DMSO.

Question: With `CC(C)C[C@@H](O)COc1cc2c(cc1C1(c3cc4c(cc3OC[C@H](O)CC(C)C)OCO4)C(=O)Nc3cc(F)ccc31)OCO2` [CMLD012393, 6-fluoro-3,3-bis(6-(((R)-2-hydroxy-4-methylpentyl)oxy)benzo[d][1,3]dioxol-5-yl)indolin-2-one] as the compound, how does the FICI read?
Answer: 0.130

Question: Which FICI does the source give for `CC[C@@H](O)COc1cc2c(cc1C1(c3cc4c(cc3OC[C@H](O)CC)OCO4)C(=O)Nc3cc(F)ccc31)OCO2` [CMLD012394, 6-fluoro-3,3-bis(6-((R)-2-hydroxybutoxy)benzo[d][1,3]dioxol-5-yl)indolin-2-one] here?
Answer: 0.266

Question: How did the FICI turn out when `CC[C@@H](O)COc1cc2c(cc1C1(c3cc4c(cc3OC[C@H](O)CC)OCO4)C(=O)Nc3c(F)cccc31)OCO2` [CMLD012399, 7-fluoro-3,3-bis(6-((R)-2-hydroxybutoxy)benzo[d][1,3]dioxol-5-yl)indolin-2-one] was run?
Answer: 0.500

Question: How did the FICI turn out when `C=CC[C@@H](O)COc1cc2c(cc1C1(c3cc4c(cc3OC[C@H](O)CC=C)OCO4)C(=O)Nc3cc(F)ccc31)OCO2` [CMLD012400, 6-fluoro-3,3-bis(6-(((R)-2-hydroxypent-4-en-1-yl)oxy)benzo[d][1,3]dioxol-5-yl)indolin-2-one] was run?
Answer: 0.130

Question: Which FICI does the source give for `C=CC[C@@H](O)COc1cc2c(cc1C1(c3cc4c(cc3OC[C@H](O)CC=C)OCO4)C(=O)Nc3c(F)cccc31)OCO2` [CMLD012402, 7-fluoro-3,3-bis(6-(((R)-2-hydroxypent-4-en-1-yl)oxy)benzo[d][1,3]dioxol-5-yl)indolin-2-one] here?
Answer: 0.113

Question: How did the FICI turn out when `C=C(C)C[C@@H](O)COc1cc2c(cc1C1(c3cc4c(cc3OC[C@H](O)CC(=C)C)OCO4)C(=O)Nc3c(F)cccc31)OCO2` [CMLD012436, 7-fluoro-3,3-bis(6-(((R)-2-hydroxy-4-methylpent-4-en-1-yl)oxy)benzo[d][1,3]dioxol-5-yl)indolin-2-one] was run?
Answer: 0.175

Question: For `CCC[C@@H](O)COc1cc2c(cc1C1(c3cc4c(cc3OC[C@H](O)CCC)OCO4)C(=O)Nc3cc(F)ccc31)OCO2` [CMLD012439, 6-fluoro-3,3-bis(6-(((R)-2-hydroxypentyl)oxy)benzo[d][1,3]dioxol-5-yl)indolin-2-one], which FICI is on record?
Answer: 0.130

Question: Which FICI does the source give for `CCC[C@@H](O)COc1cc2c(cc1C1(c3cc4c(cc3OC[C@H](O)CCC)OCO4)C(=O)Nc3c(F)cccc31)OCO2` [CMLD012440, 7-fluoro-3,3-bis(6-(((R)-2-hydroxypentyl)oxy)benzo[d][1,3]dioxol-5-yl)indolin-2-one] here?
Answer: 0.058

Question: Which FICI does the source give for `CC(C)(C)C[C@@H](O)COc1cc2c(cc1C1(c3cc4c(cc3OC[C@H](O)CC(C)(C)C)OCO4)C(=O)Nc3cc(F)ccc31)OCO2` [CMLD012443, 6-fluoro-3,3-bis(6-(((R)-2-hydroxy-4,4-dimethylpentyl)oxy)benzo[d][1,3]dioxol-5-yl)indolin-2-one] here?
Answer: 0.068

Question: With `CC(C)(C)C[C@@H](O)COc1cc2c(cc1C1(c3cc4c(cc3OC[C@H](O)CC(C)(C)C)OCO4)C(=O)Nc3ccc(F)cc31)OCO2` [CMLD012444, 5-fluoro-3,3-bis(6-(((R)-2-hydroxy-4,4-dimethylpentyl)oxy)benzo[d][1,3]dioxol-5-yl)indolin-2-one] as the compound, how does the FICI read?
Answer: 0.068

Question: How did the FICI turn out when `CC(C)(C)C[C@@H](O)COc1cc2c(cc1C1(c3cc4c(cc3OC[C@H](O)CC(C)(C)C)OCO4)C(=O)Nc3cc(Br)ccc31)OCO2` [CMLD012446, 6-bromo-3,3-bis(6-(((R)-2-hydroxy-4,4-dimethylpentyl)oxy)benzo[d][1,3]dioxol-5-yl)indolin-2-one] was run?
Answer: 0.068

Question: Which FICI does the source give for `C=CCC[C@@H](O)COc1cc2c(cc1C1(c3cc4c(cc3OC[C@H](O)CCC=C)OCO4)C(=O)Nc3cc(F)ccc31)OCO2` [CMLD012447, 6-fluoro-3,3-bis(6-(((R)-2-hydroxyhex-5-en-1-yl)oxy)benzo[d][1,3]dioxol-5-yl)indolin-2-one] here?
Answer: 0.130

Question: For `C=CCC[C@@H](O)COc1cc2c(cc1C1(c3cc4c(cc3OC[C@H](O)CCC=C)OCO4)C(=O)Nc3c(F)cccc31)OCO2` [CMLD012449, 7-fluoro-3,3-bis(6-(((R)-2-hydroxyhex-5-en-1-yl)oxy)benzo[d][1,3]dioxol-5-yl)indolin-2-one], which FICI is on record?
Answer: 0.113

Question: For `C=CCC[C@@H](O)COc1cc2c(cc1C1(c3cc4c(cc3OC[C@H](O)CCC=C)OCO4)C(=O)Nc3ccc(F)cc31)OCO2` [CMLD012450, 5-fluoro-3,3-bis(6-(((R)-2-hydroxyhex-5-en-1-yl)oxy)benzo[d][1,3]dioxol-5-yl)indolin-2-one], which FICI is on record?
Answer: 0.266

Question: Which FICI does the source give for `C=CCC[C@@H](O)COc1cc2c(cc1C1(c3cc4c(cc3OC[C@H](O)CCC=C)OCO4)C(=O)Nc3cc(Br)ccc31)OCO2` [CMLD012452, 6-bromo-3,3-bis(6-(((R)-2-hydroxyhex-5-en-1-yl)oxy)benzo[d][1,3]dioxol-5-yl)indolin-2-one] here?
Answer: 0.266

Question: For `C=CCC[C@@H](O)COc1cc2c(cc1C1(c3cc4c(cc3OC[C@H](O)CCC=C)OCO4)C(=O)Nc3cccc(Br)c31)OCO2` [CMLD012453, 4-bromo-3,3-bis(6-(((R)-2-hydroxyhex-5-en-1-yl)oxy)benzo[d][1,3]dioxol-5-yl)indolin-2-one], which FICI is on record?
Answer: 0.257

Question: `CCC[C@@H](O)COc1cc2c(cc1C1(c3cc4c(cc3OC[C@H](O)CCC)OCO4)C(=O)Nc3ccc(F)cc31)OCO2` [CMLD013619, 5-fluoro-3,3-bis(6-(((R)-2-hydroxypentyl)oxy)benzo[d][1,3]dioxol-5-yl)indolin-2-one] was tested. Which FICI did it give?
Answer: 0.255

Question: `CC(C)C[C@@H](O)COc1cc2c(cc1C1(c3cc4c(cc3OC[C@H](O)CC(C)C)OCO4)C(=O)Nc3ccc(F)cc31)OCO2` [CMLD013622, 5-fluoro-3,3-bis(6-(((R)-2-hydroxy-4-methylpentyl)oxy)benzo[d][1,3]dioxol-5-yl)indolin-2-one] was tested. Which FICI did it give?
Answer: 0.130

Question: With `CC(C)C[C@@H](O)COc1cc2c(cc1C1(c3cc4c(cc3OC[C@H](O)CC(C)C)OCO4)C(=O)Nc3c(F)cccc31)OCO2` [CMLD013623, 7-fluoro-3,3-bis(6-(((R)-2-hydroxy-4-methylpentyl)oxy)benzo[d][1,3]dioxol-5-yl)indolin-2-one] as the compound, how does the FICI read?
Answer: 0.036

Question: For `CC(C)(C)C[C@@H](O)COc1cc2c(cc1C1(c3cc4c(cc3OC[C@H](O)CC(C)(C)C)OCO4)C(=O)Nc3c(F)cccc31)OCO2` [CMLD013624, 7-fluoro-3,3-bis(6-(((R)-2-hydroxy-4,4-dimethylpentyl)oxy)benzo[d][1,3]dioxol-5-yl)indolin-2-one], which FICI is on record?
Answer: 0.068

Question: How did the FICI turn out when `CC(C)C[C@@H](O)COc1cc2c(cc1C1(c3cc4c(cc3OC[C@H](O)CC(C)C)OCCO4)C(=O)Nc3cc(F)ccc31)OCCO2` [CMLD013648, 6-fluoro-3,3-bis(7-(((2R)-2-hydroxy-4-methylpentyl)oxy)-2,3-dihydro-1,4-benzodioxin-6-yl)-2,3-dihydro-1H-indol-2-one] was run?
Answer: 0.255

Question: How did the FICI turn out when `CC(C)C[C@@H](O)COc1cc2c(cc1C1(c3cc4c(cc3OC[C@H](O)CC(C)C)OCO4)C(=O)Nc3ccc(Br)cc31)OCO2` [CMLD013650, 5-bromo-3,3-bis(6-(((2R)-2-hydroxy-4-methylpentyl)oxy)-2H-1,3-benzodioxol-5-yl)-2,3-dihydro-1H-indol-2-one] was run?
Answer: 0.300

Question: Which FICI does the source give for `CC(C)C[C@@H](O)COc1cc2c(cc1C1(c3cc4c(cc3OC[C@H](O)CC(C)C)OCO4)C(=O)Nc3cc(Br)ccc31)OCO2` [CMLD013651, 6-bromo-3,3-bis(6-(((2R)-2-hydroxy-4-methylpentyl)oxy)-2H-1,3-benzodioxol-5-yl)-2,3-dihydro-1H-indol-2-one] here?
Answer: 0.130
